Assay [1] relates to CQ-sensitive (FCMSU1/Sudan) strain of P. falciparum. The experiment in a line: 3H-adenosine incorporation, chloroquine-sensitive P. falciparum. Type of assay: cell-based. Here is the method:
(§1) Chloroquine and qinghaosu are commonly used antimalarial drugs.
(§2) The dose (IC50) of each drug or each drug combination required to effect a 50% inhibition in the malarial activity of each strain was determined by establishing a dose response curve for each.
(§3) FCMSU1/Sudan strain and cloned Indochina (W-2) strain of P. falciparum were used. […] The two strains of the parasite were cultured according to the candle jar method of Trager and Jensen, Science, Vol. 193, pages 673-675 (1976). In a given experiment, four-day-old Petri dish cultures (approximately 10% parasitemia) were diluted with medium containing an amount of noninfected type A human erythrocytes to obtain a culture with a final hematocrit of 1.5% and parasitemia of 0.5-1.0%. The resulting culture was ready for addition to microtitration plates with ninety-six flat-bottom wells.
(§4) The testing procedure used was similar to that described by Desjardins et al. in “Antimicrobial Agents and Chemotherapy,” Vol. 16, pages 710-718 (1979). […] 25 microliters radioactive (0.5 microCi) [2,8-^3H] adenosine. The microtitration plates were incubated in a candle jar for an additional 18 hours, at 37° C.
(§5) As the malaria parasite grows ^3H-adenosine is metabolized and incorporates into polymeric RNA and DNA. The labeled polymers are trapped on glass fiber filters and unincorporated material is washed away. In the absence of drug there is 100% incorporation of the labeled material. When drugs interfere (directly or indirectly), an inhibitory dose of 50% (IC50) can be calculated. The experiments were repeated three times except where noted. Statistical analysis was done using Student's T-test for significance. Van Kyke et al. “Exp. Parasitol,” Vol. 64, pages 418-423 (1987).
(§6) The test procedure was basically the same as outlined above.

The test system of assay [2] is CQ-resistant (W-2) strain of P. falciparum. The experiment in a line: 3H-adenosine incorporation, chloroquine-resistant P. falciparum. It is filed as cell-based. The settings on record: for Ratio (S/R): IC50 against sensitive strain divided by IC50 for resistant strain. Here is the method: as §1, §2, §3, §4, §5, §6
The test system of assay [3] is DX20 cancer cells. Briefly: modified MTT assay, drug sensitivity of DX20 cells. The settings on record: DX20 cells; single agent; read-out: IC50 alone. It is filed as cell-based, human. The source says: The MES-SA/DX20 cell line was established according to the development methods of Sikic et al., Resistance to Antineoplastic Drugs, Chap. 3, CRC Press, Ed. David Kessel, pp. 37-47 (1989). In vitro drug sensitivity testing consisted of two assay models, the modified MTT assay (Mossman, J. Immunolog. Methods, Vol. 65, pp. 55-63, 1983) and the colonogenic assay. In addition to this, the combinations were investigated in vivo in nude mice bearing the DX20 cell line. The MTT assay was chosen because of its practical advantages in large-scale screening. The assay involved cellular conversion of tetrazolium salt to a colored formazan serving as a measurement of cell viability.
In a given experiment, culture media, 50 microliters, containing 8,000-25,000 cells, depending on the proliferation rate of the cell line, was pipetted into each well of several 96-well microtiter plates. The cells were allowed to attach overnight. […] The cytotoxic drug, also at a concentration below that previously established as an IC50, was then added at decreasing concentrations by 25% to several half plate sections. The cells were allowed to grown for 72 hours. 100 microliters of media was then removed and 25 microliters of 5 mg/ml MTT (Sigma, St. Louis, Mo.) in phosphate buffered saline was added to each well. The plates were kept in an incubator at 37° C. and 5% CO2. After 2-3 hours of incubation, the extraction buffer containing 20% w/v SDS and 50% DMF was added and the plates again incubated overnight. The plates were read at a test wavelength of 570 nm on a multiwell spectrophotometer (Model MR 700, Dynatech Laboratories, Alexandria, Va.). Each drug combination was tested in triplicate. Percent survival was defined as percent of optical density (OD) of the drug-treated wells to that of the control detected by the spectrophotometer.
The in vitro drug sensitivity testing of ethyl fangchinoline consisted of two assay models, the modified MTT (Mossman 1983) and a colony formation assay in which a direct measure was taken by quantitation of colony formation. The MTT assay was chosen because of its practical advantages in large scale screening. The assay involves cellular conversion of tetrozolium salt to a colored formazan serving as a measurement of cell viability.
Two human cell lines were chosen as the primary targets of study in reversing multiple-drug resistance. The MES-SA, a sarcoma, and its resistant subline, DX-20, were kindly donated by Dr. B. Sikic (U of Stanford, Stanford, Calif.). The A2780, an ovarian cancer, and its resistant subline, A2780-ad10, were provided by Roswell Park Memorial Inst. (Buffalo, N.Y.).
Culture media, 50 ul containing 8,000 to 25,000 cells depending on the proliferation rate of the line, was pipetted into each of 96 wells in a flat bottom tissue plate. The cells were incubated overnight to allow adherence. One hundred ul of ethyl fangchinoline, at a concentration below that previously established as an independent IC50, was added to each experimental well. […] The plates were then incubated for 72 hours before MTT was added and the analysis of O.D. values interpreted by a multi-plate scanner (MR700, Dynatech).
In general terms: Tetrazolium dyes change colour on reduction, which living cells bring about.

The mark [4] stands for this setting: Table VII, chloroquine-sensitive strain, drug alone, read-out: IC50 S.
[5] abbreviates: Table VII, chloroquine-resistant strain, drug alone, read-out: IC50 R.
Setting [6] is: Plasmodium falciparum, read-out: IC50 S.
The mark [7] stands for this setting: Plasmodium falciparum, read-out: IC50 R.
[8] abbreviates: Plasmodium falciparum, read-out: IC50 DRUG COMBINATION TT(1.0 uM) CQ(0.3 uM).
Setting [9] is: Plasmodium falciparum, read-out: IC50 DRUG COMBINATION TT(2.0 uM) CQ(0.2 uM).
Setting [10] is: Plasmodium falciparum, read-out: IC50 DRUG COMBINATION TT(3.0 uM) CQ(0.1 uM).
Setting [11] is: Plasmodium falciparum, read-out: IC50 SINGLE DRUG.

Like-named read-outs stand apart in the source and are kept apart here.

As to `COc1cc2c3cc1Oc1c(OC)c(OC)cc4c1[C@@H](Cc1ccc(O)c(c1)Oc1ccc(cc1)C[C@H]3N(C)CC2)N(C)CC4` [PY, pycnamine], the IC50 (in general, the point on the concentration scale where inhibition reaches its midpoint) in assay [1] (setting [4]) is 380 nM; in assay [2] (setting [5]), 420 nM. Also, the “Ratio (S/R)” value in assay [2] came to 0.9.

Regarding `COc1ccc2cc1Oc1ccc(cc1)C[C@H]1c3cc(c(OC)cc3CCN1C)Oc1c(OC)c(OC)c(OC)c3c1[C@H](C2)N(C)CC3` [HE, hernandezine], the IC50 in assay [1] (setting [4]) came to 370 nM; in assay [2] (setting [5]), 130 nM. Also, the “Ratio (S/R)” value in assay [2] stood at 2.8.

Consider ethyl fangchinoline, for which the IC50 in assay [3] was 6500 nM.

As for `C[C@@H]1CC[C@H]2[C@@H](C)C(=O)O[C@@H]3O[C@@]4(C)CC[C@@H]1[C@]32OO4` [QHS, qinghaosu], the IC50 in assay [1] (S STRAIN, TT/QHS 10:1, mean ± S.D, read-out: IC50 DRUG COMBINATION TT(2.0 uM) QHS(0.2 uM)) was 11.4 ± 0.6 nM; in assay [1] (Table IV, S STRAIN, mean ± S.D, read-out: IC50 SINGLE DRUG) it was 36.7 ± 4.7 nM; in assay [1] (read-out: IC50 DRUG COMBINATION TT(1.0 uM) QHS(0.3 uM), S STRAIN, TT/QHS 10:3, mean ± S.D), 21.6 ± 2.7 nM; in assay [1] (read-out: IC50 DRUG COMBINATION TT(3.0 uM) QHS(0.1 uM), S STRAIN, TT/QHS 30:1, mean ± S.D), 7.3 ± 1.2 nM; in assay [2] (R STRAIN, TT/QHS 10:1, mean ± S.D, read-out: IC50 DRUG COMBINATION TT(2.0 uM) QHS(0.2 uM)) it was 7.2 ± 1.4 nM; in assay [2] (Table IV, R STRAIN, mean ± S.D, read-out: IC50 SINGLE DRUG), 47.8 ± 14.5 nM. Also, the IC50 is 17.9 ± 4.1 nM in assay [2] (read-out: IC50 DRUG COMBINATION TT(1.0 uM) QHS(0.3 uM), R STRAIN, TT/QHS 10:3, mean ± S.D) and 4.6 ± 1.4 nM in assay [2] (read-out: IC50 DRUG COMBINATION TT(3.0 uM) QHS(0.1 uM), R STRAIN, TT/QHS 30:1, mean ± S.D).

Take `COc1ccc2cc1Oc1ccc(cc1)C[C@@H]1c3cc(c(OC)cc3CCN1C)Oc1c(OC)c(OC)cc3c1[C@H](C2)N(C)CC3` [IT, isotetrandrine]: the IC50 in assay [1] (setting [4]) worked out at 480 nM; in assay [2] (setting [5]) it was 140 nM.

As to `COc1cc(C[C@H]2c3cc(OC)c(OC)cc3CCN2C)c(Oc2cc3c(cc2OC)-c2c(OC)c(OC)cc4c2[C@H](C3)N(C)CC4)cc1OC` [TH, thalicarpine], the IC50 in assay [1] (Plasmodium falciparum, Table VII, chloroquine-sensitive strain, drug alone, read-out: IC50 S) was 1700 nM; in assay [2] (Plasmodium falciparum, Table VII, chloroquine-resistant strain, drug alone, read-out: IC50 R), 1300 nM. The “Ratio (S/R)” value in assay [2] is 1.3.

With `COc1cc2c3cc1Oc1c(O)c(OC)cc4c1[C@@H](Cc1ccc(O)c(c1)Oc1ccc(cc1)C[C@@H]3N(C)CC2)N(C)CC4` [OB, obamegine], the IC50 worked out at 660 nM in assay [1] (setting [4]) and 480 nM in assay [2] (setting [5]). Moreover, the “Ratio (S/R)” value in assay [2] was 1.5.

Regarding `COc1ccc2cc1Oc1ccc(cc1)C[C@H]1c3c(cc4c(c3Oc3cc5c(cc3OC)CCN(C)[C@@H]5C2)OCO4)CCN1C` [CE, cepharanthine], the IC50 was 1000 nM in assay [1] (setting [6]) and 940 nM in assay [2] (setting [7]). Further, the “Ratio (S/R)” value in assay [2] came out at 1.1.

For the molecule `COc1ccc2cc1Oc1ccc(cc1)C[C@H]1c3cc(c(OC)cc3CCN1C)Oc1c(O)c(OC)cc3c1[C@H](C2)N(C)CC3` [TA, fangchinoline], the IC50 turned out to be 260 nM in assay [1] (setting [4]) and 220 nM in assay [2] (setting [5]). The “Ratio (S/R)” value in assay [2] turned out to be 1.2.

Regarding `COc1cc(C[C@H]2c3cc(OC)c(OC)c(OC)c3CCN2C)c(Oc2cc3c(cc2OC)-c2c(OC)c(OC)c(OC)c4c2[C@H](C3)N(C)CC4)cc1OC` [ME, methoxadiantifoline], the figures for the IC50 in assay [1] (setting [6]) and in assay [2] (setting [7]) were 5300 nM and 970 nM, respectively. The “Ratio (S/R)” value in assay [2] was 5.5. Moreover, the “effectiveness against resistant versus sensitive malarial strain” value in assay [2] (conclusion from Table VII) is given as “substantially more effective against the chloroquine resistant malarial strain than against the chloroquine sensitive malarial strain”.

Regarding `COc1ccc2cc1Oc1ccc(cc1)C[C@@H]1c3cc(c(OC)cc3CCN1C)Oc1c(OC)c(OC)cc3c1[C@@H](C2)N(C)CC3` [PH, phacanthine], the IC50 came to 600 nM in assay [1] (setting [4]) and 500 nM in assay [2] (setting [5]).

For `COc1cc2c3cc1Oc1c(OC)c(OC)cc4c1[C@@H](Cc1ccc(O)c(c1)Oc1ccc(cc1)C[C@@H]3N(C)CC2)N(C)CC4` [BB, berbamine], the IC50 in assay [1] (setting [4]) was determined as 460 nM; in assay [2] (setting [5]), 190 nM. In assay [2], the “Ratio (S/R)” value turned out to be 2.7.

`CCN(CC)CCCC(C)Nc1ccnc2cc(Cl)ccc12` (centres unmarked) [CQ, chloroquine]: the IC50 was 16.5 ± 2.1 nM in assay [1] (setting [8]); 11.4 ± 2.3 nM in assay [1] (setting [9]); 7.4 ± 1.3 nM in assay [1] (setting [10]); 26.7 ± 3.8 nM in assay [1] (setting [11]); 23.8 ± 4.1 nM in assay [2] (setting [8]); 8 ± 1.6 nM in assay [2] (setting [9]). Also, the results for the IC50 in assay [2] (setting [10]) and in assay [2] (setting [11]) were 4.2 ± 0.3 nM and 186 ± 4.9 nM, respectively. Also, in assay [2] (3.0 micromolar d-tetrandrine added to 0.1 micromolar chloroquine), the “lowering of the IC50 of chloroquine” value is 43 Fold.

Consider cycleanine, for which the IC50 in assay [1] (setting [4]) came to 3200 nM; in assay [2] (setting [5]) it was 4200 nM. In assay [2], the “Ratio (S/R)” value was 0.8.

(Values after patent US6911454B1, “Method for potentiating primary drugs in treating multidrug resistant disease” (priority 1989, dated 2005).)
